Assays:
Assay type in all cases: cell-based
[1] = target: GSPT1 (Homo sapiens, UniProt P15170+Q96SW2); test: GSPT1 Cellular Degradation Assay (DF15-GSPT1-ePL); parameters: expressed in transfected cells; conditions: DF15-GSPT1-ePL cells, 20 hours
Outline: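 Human DF15 cells co-expressing a GSPT1–ePL fusion were treated with compound in RPMI 1640/10% FBS for 20 h at 37 °C. GSPT1 level was read by enzyme-fragment-complementation luminescence after 60 min with detection reagent. The reference degrader at […] defined 75% response; DC50 and Dmax were reported.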

[2] = system: Phospho-Rb (Ser807/811); test: Phospho-Retinoblastoma (pRB) Cellular Assay; conditions: Homo sapiens, OVCAR-3, NIH OVCAR3 cells, 24 hours; for IC50: concentration giving 50% response; for Emax: maximum response, reference compound at 10 μM = 100%, read-out: pRB Ymax
Outline: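 OVCAR3 cells seeded overnight, then dosed with serial dilutions for 24 h at 37° C. Lysed with kit mix plus phosphatase inhibitor, ≥4 h at room temperature, read on EnVision; 100% response set by reference compound at 10 μM, giving IC50 and Ymax.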

[3] = target: Cyclin E1 (Homo sapiens, UniProt P24864+Q96SW2); test: Cyclin E1 Cellular Degradation Assay (MSD); parameters: endogenous in cells; host or cells: OVCAR3; conditions: for DC50 / Dmax: Cyclin E1 cellular degradation; for Dmax: maximum degradation; for Ratio of GSPT1 DC50/Cyclin E1 DC50: selectivity for degradation of Cyclin E1 over GSPT1
Cyclin E1, sequence (P24864 whole entry): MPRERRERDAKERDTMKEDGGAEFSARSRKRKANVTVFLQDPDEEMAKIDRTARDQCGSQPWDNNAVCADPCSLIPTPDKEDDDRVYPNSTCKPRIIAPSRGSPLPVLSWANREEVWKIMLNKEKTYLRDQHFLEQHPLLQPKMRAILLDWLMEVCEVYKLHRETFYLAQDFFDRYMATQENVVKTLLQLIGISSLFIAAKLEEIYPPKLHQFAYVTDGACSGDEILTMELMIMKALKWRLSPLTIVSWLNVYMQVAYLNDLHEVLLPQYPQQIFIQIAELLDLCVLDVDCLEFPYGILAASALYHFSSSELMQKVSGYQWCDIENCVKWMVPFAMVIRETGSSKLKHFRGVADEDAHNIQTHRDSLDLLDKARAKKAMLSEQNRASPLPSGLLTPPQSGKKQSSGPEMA
Cyclin E1, sequence (Q96SW2 whole entry): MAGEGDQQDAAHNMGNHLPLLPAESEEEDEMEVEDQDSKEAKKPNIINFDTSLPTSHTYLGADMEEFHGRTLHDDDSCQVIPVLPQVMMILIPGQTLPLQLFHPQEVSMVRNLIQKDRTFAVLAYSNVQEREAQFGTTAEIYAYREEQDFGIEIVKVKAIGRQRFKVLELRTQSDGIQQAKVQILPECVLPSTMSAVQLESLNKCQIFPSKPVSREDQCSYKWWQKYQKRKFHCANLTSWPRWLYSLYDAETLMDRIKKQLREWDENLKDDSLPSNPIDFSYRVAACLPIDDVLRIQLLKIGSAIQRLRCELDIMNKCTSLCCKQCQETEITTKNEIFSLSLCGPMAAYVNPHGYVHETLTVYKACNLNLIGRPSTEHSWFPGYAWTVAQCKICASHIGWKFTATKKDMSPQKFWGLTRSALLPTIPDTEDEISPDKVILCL
Cyclin E1, sequence (Q16531 whole entry partner): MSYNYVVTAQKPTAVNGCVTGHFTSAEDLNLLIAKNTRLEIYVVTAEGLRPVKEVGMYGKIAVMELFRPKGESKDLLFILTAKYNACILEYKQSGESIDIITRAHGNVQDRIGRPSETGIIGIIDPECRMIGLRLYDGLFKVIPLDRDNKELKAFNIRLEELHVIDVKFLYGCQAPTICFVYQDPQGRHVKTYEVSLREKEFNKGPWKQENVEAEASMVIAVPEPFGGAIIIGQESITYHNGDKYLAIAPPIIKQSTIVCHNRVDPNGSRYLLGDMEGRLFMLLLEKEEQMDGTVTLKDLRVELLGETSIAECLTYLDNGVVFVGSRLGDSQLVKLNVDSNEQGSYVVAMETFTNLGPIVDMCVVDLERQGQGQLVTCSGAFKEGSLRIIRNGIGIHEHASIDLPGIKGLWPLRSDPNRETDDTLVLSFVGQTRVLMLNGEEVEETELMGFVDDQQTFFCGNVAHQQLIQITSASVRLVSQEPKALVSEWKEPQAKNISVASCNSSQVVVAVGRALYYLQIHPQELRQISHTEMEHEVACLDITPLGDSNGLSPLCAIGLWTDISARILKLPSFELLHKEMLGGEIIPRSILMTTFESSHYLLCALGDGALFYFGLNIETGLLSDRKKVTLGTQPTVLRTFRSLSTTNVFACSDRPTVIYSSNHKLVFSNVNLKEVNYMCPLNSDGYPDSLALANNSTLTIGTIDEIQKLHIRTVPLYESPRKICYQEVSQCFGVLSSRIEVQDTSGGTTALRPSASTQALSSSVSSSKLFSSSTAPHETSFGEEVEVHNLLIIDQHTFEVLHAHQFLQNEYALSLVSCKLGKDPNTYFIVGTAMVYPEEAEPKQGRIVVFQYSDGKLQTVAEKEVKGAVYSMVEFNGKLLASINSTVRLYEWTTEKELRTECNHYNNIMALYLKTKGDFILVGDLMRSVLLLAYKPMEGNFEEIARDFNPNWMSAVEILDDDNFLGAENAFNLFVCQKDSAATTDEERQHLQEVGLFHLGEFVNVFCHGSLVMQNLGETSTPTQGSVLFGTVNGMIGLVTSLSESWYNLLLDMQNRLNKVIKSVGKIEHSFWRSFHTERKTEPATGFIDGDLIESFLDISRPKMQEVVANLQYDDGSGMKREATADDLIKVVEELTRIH
Outline: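 OVCAR3 cells treated with compound for 24 h at 37 °C, lysed, and cyclin E1 measured by MSD sandwich immunoassay (rabbit capture, mouse detection anti-CCNE1). Reference degrader at […] defined 110% response; DC50 and Dmax derived from response.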

GSPT1, sequence (P15170 whole entry, the tested form may be a part): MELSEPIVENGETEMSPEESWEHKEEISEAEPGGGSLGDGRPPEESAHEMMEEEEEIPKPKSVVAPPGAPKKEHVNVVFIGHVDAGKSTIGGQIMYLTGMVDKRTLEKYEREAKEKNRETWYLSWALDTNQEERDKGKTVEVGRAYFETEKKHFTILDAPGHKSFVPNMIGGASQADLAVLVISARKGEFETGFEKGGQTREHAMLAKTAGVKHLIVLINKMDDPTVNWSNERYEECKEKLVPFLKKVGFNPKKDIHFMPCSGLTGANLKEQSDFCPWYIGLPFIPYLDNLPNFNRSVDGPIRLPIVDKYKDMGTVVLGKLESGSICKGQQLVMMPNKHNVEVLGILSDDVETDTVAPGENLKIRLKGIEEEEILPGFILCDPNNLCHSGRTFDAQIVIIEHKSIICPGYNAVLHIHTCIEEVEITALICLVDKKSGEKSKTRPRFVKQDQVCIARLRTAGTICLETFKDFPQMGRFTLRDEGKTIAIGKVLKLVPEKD
GSPT1, sequence (Q96SW2 whole entry, the tested form may be a part): as the sequence (Q96SW2 whole entry) above
GSPT1, sequence (Q16531 whole entry partner, the tested form may be a part): as the sequence (Q16531 whole entry partner) above

| DC50 [1] [nM] | Dmax [1] [%] | IC50 [2] [nM] | DC50 [3] [nM] | Dmax [3] [%] | Ratio of GSPT1 DC50/Cyclin E1 DC50 [3] | Compound | Emax [2] [%] |
| --- | --- | --- | --- | --- | --- | --- | --- |
| > 14000 | 19 | 37 | 84 | 107 | >166 | O=C1CCC(N2Cc3ccc(COC(=O)Nc4ccc(Oc5ccc(F)c(F)c5)cc4)c(O[C@@H]4CCOC4)c3C2=O)C(=O)N1 (stereo partly drawn) [Example 153, [2-(2,6-dioxopiperidin-3-yl)-3-oxo-4-[(3R)-oxolan-3-yloxy]-2,3-dihydro-1H-isoindol-5-yl]methyl N-[4-(3,4-difluorophenoxy)phenyl]carbamate] | 124 |
| > 14000 | 2 | 165 | 316 | 113 | >44 | COc1c(COC(=O)Nc2ccc(Oc3cc(F)c(F)cc3C)cc2)ccc2c1C(=O)N(C1CCC(=O)NC1=O)C2 (centres unmarked) [Example 78, [2-(2,6-dioxopiperidin-3-yl)-4-methoxy-3-oxo-2,3-dihydro-1H-isoindol-5-yl]methyl N-[4-(4,5-difluoro-2-methylphenoxy)phenyl]carbamate] | 126 |
| > 14000 | 10 | 42 | 224 | 104 | >62 | CC(=O)N1CCC(Oc2c(COC(=O)Nc3ccc(Oc4ccc(F)c(F)c4)cc3)ccc3c2C(=O)N(C2CCC(=O)NC2=O)C3)CC1 (centres unmarked) [Example 179, {4-[(1-acetylpiperidin-4-yl)oxy]-2-(2,6-dioxopiperidin-3-yl)-3-oxo-2,3-dihydro-1H-isoindol-5-yl}methyl N-[4-(3,4-difluorophenoxy)phenyl]carbamate] | 140 |
| > 14000 | 10 | 66 | 20 | 107 | >693 | O=C1CCC(N2Cc3ccc(COC(=O)Nc4ccc(Oc5ccc(F)c(F)c5)cc4F)c(OC4CCOCC4)c3C2=O)C(=O)N1 (centres unmarked) [Example 132, [2-(2,6-dioxopiperidin-3-yl)-4-(oxan-4-yloxy)-3-oxo-2,3-dihydro-1H-isoindol-5-yl]methyl N-[4-(3,4-difluorophenoxy)-2-fluorophenyl]carbamate] | 142 |
| > 14000 | 32 | 428 | 97 | 106 | >145 | COc1c(COC(=O)Nc2ccc(Oc3cccc(Cl)c3)cc2F)ccc2c1C(=O)N(C1CCC(=O)NC1=O)C2 (centres unmarked) [Example 26, [2-(2,6-dioxopiperidin-3-yl)-4-methoxy-3-oxo-2,3-dihydro-1H-isoindol-5-yl]methyl N-[4-(3-chlorophenoxy)-2-fluorophenyl]carbamate] | 96 |
| > 14000 | 0 | 28 | 31 | 102 | >450 | O=C1CCC(N2Cc3ccc(COC(=O)Nc4ccc(Oc5ccccc5Cl)cc4)c(OC4CCOCC4)c3C2=O)C(=O)N1 (centres unmarked) [Example 131, [2-(2,6-dioxopiperidin-3-yl)-4-(oxan-4-yloxy)-3-oxo-2,3-dihydro-1H-isoindol-5-yl]methyl N-[4-(2-chlorophenoxy)phenyl]carbamate] | 129 |
| > 14000 | 54 | 352 | 114 | 106 | >123 | COc1c(COC(=O)Nc2ccc(Oc3cccc(Br)c3)cc2)ccc2c1C(=O)N(C1CCC(=O)NC1=O)C2 (centres unmarked) [Example 10, [2-(2,6-dioxopiperidin-3-yl)-4-methoxy-3-oxo-2,3-dihydro-1H-isoindol-5-yl]methyl N-[4-(3-bromophenoxy)phenyl]carbamate] | 105 |
| > 14000 | 16 | 42 | 25 | 106 | >569 | O=C1CCC(N2Cc3ccc(COC(=O)Nc4ccc(Oc5ccc(F)cc5)cc4)c(OC4CCOCC4)c3C2=O)C(=O)N1 (centres unmarked) [Example 133, [2-(2,6-dioxopiperidin-3-yl)-4-(oxan-4-yloxy)-3-oxo-2,3-dihydro-1H-isoindol-5-yl]methyl N-[4-(4-fluorophenoxy)phenyl]carbamate] | 145 |
| > 14000 | 50 | 33 | 52 | 107 | >268 | COc1c(COC(=O)Nc2ccc(Oc3ccc(F)cc3Cl)cc2F)ccc2c1C(=O)N(C1CCC(=O)NC1=O)C2 (centres unmarked) [Example 105, [2-(2,6-dioxopiperidin-3-yl)-4-methoxy-3-oxo-2,3-dihydro-1H-isoindol-5-yl]methyl N-[4-(2-chloro-4-fluorophenoxy)-2-fluorophenyl]carbamate] | 120 |
| > 14000 | 21 | 185 | 141 | 108 | >99 | CCOc1c(COC(=O)Nc2ccc(Oc3cccc(F)c3)cc2)ccc2c1C(=O)N(C1CCC(=O)NC1=O)C2 (centres unmarked) [Example 55, [2-(2,6-dioxopiperidin-3-yl)-4-ethoxy-3-oxo-2,3-dihydro-1H-isoindol-5-yl]methyl N-[4-(3-fluorophenoxy)phenyl]carbamate] | 114 |
| > 14000 | 19 | 55 | 111 | 103 | >126 | O=C1CCC(N2Cc3ccc(COC(=O)Nc4ccc(Oc5ccccc5Cl)cc4)c(Oc4ccccc4)c3C2=O)C(=O)N1 (centres unmarked) [Example 66, [2-(2,6-dioxopiperidin-3-yl)-3-oxo-4-phenoxy-2,3-dihydro-1H-isoindol-5-yl]methyl N-[4-(2-chlorophenoxy)phenyl]carbamate] | 148 |
| > 14000 | 10 | 229 | 39 | 107 | >358 | COc1c(COC(=O)Nc2ccc(Oc3cc(F)cc(F)c3)cc2F)ccc2c1C(=O)N(C1CCC(=O)NC1=O)C2 (centres unmarked) [Example 24, [2-(2,6-dioxopiperidin-3-yl)-4-methoxy-3-oxo-2,3-dihydro-1H-isoindol-5-yl]methyl N-[4-(3,5-difluorophenoxy)-2-fluorophenyl]carbamate] | 105 |
| > 14000 | 33 | 176 | 205 | 107 | >68 | COc1c(COC(=O)Nc2ccc(Oc3ccccc3C(F)F)cc2F)ccc2c1C(=O)N(C1CCC(=O)NC1=O)C2 (centres unmarked) [Example 86, [2-(2,6-dioxopiperidin-3-yl)-4-methoxy-3-oxo-2,3-dihydro-1H-isoindol-5-yl]methyl N-{4-[2-(difluoromethyl)phenoxy]-2-fluorophenyl}carbamate] | 112 |
| > 14000 | 27 | 272 | 312 | 102 | >45 | COc1cc(Oc2cc(F)c(F)cc2C)ccc1NC(=O)OCc1ccc2c(c1OC)C(=O)N(C1CCC(=O)NC1=O)C2 (centres unmarked) [Example 73, [2-(2,6-dioxopiperidin-3-yl)-4-methoxy-3-oxo-2,3-dihydro-1H-isoindol-5-yl]methyl N-[4-(4,5-difluoro-2-methylphenoxy)-2-methoxyphenyl]carbamate] | 118 |
| > 14000 | 16 | 131 | 110 | 105 | >127 | O=C1CCC(N2Cc3ccc(COC(=O)Nc4ccc(Oc5ccc(F)c(F)c5)cc4)c(OCC(=O)N4CCOCC4)c3C2=O)C(=O)N1 (centres unmarked) [Example 178, [2-(2,6-dioxopiperidin-3-yl)-4-[2-(morpholin-4-yl)-2-oxoethoxy]-3-oxo-2,3-dihydro-1H-isoindol-5-yl]methyl N-[4-(3,4-difluorophenoxy)phenyl]carbamate] | 126 |
| > 14000 | 26 | 46 | 226 | 105 | >62 | COc1c(COC(=O)Nc2ccc(Oc3c(F)cccc3F)cc2)ccc2c1C(=O)N(C1CCC(=O)NC1=O)C2 (centres unmarked) [Example 112, [2-(2,6-dioxopiperidin-3-yl)-4-methoxy-3-oxo-2,3-dihydro-1H-isoindol-5-yl]methyl N-[4-(2,6-difluorophenoxy)phenyl]carbamate] | 115 |
| > 14000 | 16 | 54 | 61 | 106 | >230 | CC(C)Oc1c(COC(=O)Nc2ccc(Oc3ccccc3Cl)cc2)ccc2c1C(=O)N(C1CCC(=O)NC1=O)C2 (centres unmarked) [Example 122, [2-(2,6-dioxopiperidin-3-yl)-3-oxo-4-(propan-2-yloxy)-2,3-dihydro-1H-isoindol-5-yl]methyl N-[4-(2-chlorophenoxy)phenyl]carbamate] | 122 |

— patent US20250084056A1, “SUBSTITUTED OXOISOINDOLINYL PIPERIDINE-2,6-DIONE COMPOUNDS” (BRISTOL-MYERS SQUIBB COMPANY, priority 2023, published 2025)
